The values below come from US20250197442A1, “Peptide Synthesis in Aqueous Solution” (priority 2023, published 2025).

The conditions of the data set: for amount of Tween 80 required to dissolve the Fmoc protected amino acid, relative to its amount: aqueous solution, room temperature; for solubility in aqueous solutions: without the dissolving procedure.

Protocol: A process for dissolving Fmoc-AA in Aqueous Solution was developed and it is summarized as follows (FIG. 9). Firstly, a non-ionic surfactant is dissolved in a small portion of a water-miscible organic solvent, creating Solution A. Secondly, FAA is dissolved in another small portion of a water-miscible organic solvent, creating Solution B. These two solutions, Solution A and Solution B, are thoroughly mixed to create a homogeneous mixture. This mixture is then added vigorously to an aqueous solvent.
To enable the utilization of Fmoc-AA as a building block in an aqueous solution, a specialized procedure has been developed to render Fmoc-AA soluble in aqueous solvents. The present invention devised a method to render Fmoc-AA soluble in water. First, none ionic surfactant is dissolved in a small amount of water-mixable organic solution, creating solution A, and then secondly, a Fmoc-AA is dissolved in a small amount of water-mixable organic solvent to create solution B, Solution A is thoroughly mixed with Solution B. The resulting mixture is then vigorously added to an aqueous solution. Fmoc-AA aqueous solution is obtained (FIG. 9),
4 grams of Tween 80 are added to 2 ml of DMSO to create solution A. and 1 grams of Fmoc-AA are added to 5 ml of DMSO to create solution B, solution A and solution B are mixed thoroughly, and then the resulting mixture is added to 88 ml of water to obtain a 1% concentration of Fmoc-AA in aqueous solution.
• Step 1: Dissolve 1.08 grams of Fmoc-Gly in 6.13 ml of DMSO solvent. Next, add 6.00 milliliters (mL) of a 70% Tween 80 in DMSO solution to the Fmoc-Gly DMSO solution. • Step 2: Pour this mixture into 87 mL of deionized (DI) water.
Dissolve 0.18 grams of Fmoc-Phe in 1.98 DMSO of solvent. Next, add 2.26 milliliters (mL) of a 70% Tween 80 in DMSO solution to Fmoc-Phe solution.
Transfer this mixture into 20.38 mL of deionized water.
Gradually, add 70% T dropwise until the solution becomes clear.
This process yields a solution containing 0.72% Fmoc-Phe in an aqueous solution with 10.80% DMSO.

Turning to `O=C(N[C@@H](Cc1ccccc1)C(=O)O)OCC1c2ccccc2-c2ccccc21` [Fmoc-Phe, Fmoc-Phenylalanine], the “amount of Tween 80 required to dissolve the Fmoc protected amino acid, relative to its amount” value was “approximately eight times” and the “solubility in aqueous solutions” value is reported as “poor solubility”. Moreover, the “effect of raising the temperature on solubility in aqueous solution” value (raised temperature) was “significantly increase the solubility”.
Take `O=C(O)CNC(=O)OCC1c2ccccc2-c2ccccc21` [Fmoc-Gly, Fmoc-Glycine]: the “amount of Tween 80 required to dissolve the Fmoc protected amino acid, relative to its amount” value is given as “approximately four times” and the “solubility in aqueous solutions” value is on record as “poor solubility”.
